Results on five compounds are retold here after ChEMBL document CHEMBL1148794, “Structure-activity relationship of a series of inhibitors of monoacylglycerol hydrolysis--comparison with effects upon fatty acid amide hydrolase” (J Med Chem, 2007).

Test [1] addresses T1, Fatty-acid amide hydrolase 1 (Rattus norvegicus) (UniProt P97612).
T1 sequence (whole entry): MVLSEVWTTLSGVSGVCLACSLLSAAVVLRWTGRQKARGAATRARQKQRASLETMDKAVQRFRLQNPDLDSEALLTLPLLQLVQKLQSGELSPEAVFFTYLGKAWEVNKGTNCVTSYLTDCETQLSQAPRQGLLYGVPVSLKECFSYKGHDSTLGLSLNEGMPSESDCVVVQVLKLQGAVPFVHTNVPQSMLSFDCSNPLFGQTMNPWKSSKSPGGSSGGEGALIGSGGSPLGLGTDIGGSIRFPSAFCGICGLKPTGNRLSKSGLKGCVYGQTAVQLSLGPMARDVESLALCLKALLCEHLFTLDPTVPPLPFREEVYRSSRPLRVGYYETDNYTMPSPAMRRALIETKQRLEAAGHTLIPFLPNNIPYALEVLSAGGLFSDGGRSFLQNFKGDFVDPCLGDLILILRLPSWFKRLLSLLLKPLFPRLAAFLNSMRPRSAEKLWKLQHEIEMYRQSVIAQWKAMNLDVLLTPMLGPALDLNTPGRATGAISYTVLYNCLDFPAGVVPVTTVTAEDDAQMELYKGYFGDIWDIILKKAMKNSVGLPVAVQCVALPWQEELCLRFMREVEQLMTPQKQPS
The test is described as follows: Inhibition of FAAH in rat cerebellum membranes assessed as [3H]anandamide hydrolysis at 100 uM. Format: cell membranes. The note with it: Membrane.

In test [2] the target is T2, Monoglyceride lipase (Rattus norvegicus) (UniProt Q8R431).
T2 sequence (whole entry): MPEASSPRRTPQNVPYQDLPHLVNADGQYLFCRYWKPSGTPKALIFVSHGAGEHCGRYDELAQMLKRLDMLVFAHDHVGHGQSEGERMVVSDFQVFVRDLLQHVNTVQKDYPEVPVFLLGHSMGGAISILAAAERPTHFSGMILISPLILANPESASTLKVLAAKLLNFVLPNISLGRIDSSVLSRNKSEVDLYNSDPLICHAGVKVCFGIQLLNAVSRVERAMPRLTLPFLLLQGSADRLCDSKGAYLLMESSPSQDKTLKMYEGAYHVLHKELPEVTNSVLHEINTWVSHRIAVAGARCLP
The test is described as follows: Inhibition of MGL in rat cerebellum membrane fractions assessed as [3H]2-oleoylglycerol hydrolysis. Format: cell membranes.

For test [3], the target named is T1, Fatty-acid amide hydrolase 1 (Rattus norvegicus). The test is described as follows: (§1) Inhibition of FAAH in rat cerebellum membranes assessed as [3H]anandamide hydrolysis. To be noted: Membrane. Format: cell membranes.
The target of test [4] is T3, Fatty-acid amide hydrolase 1 (Rattus norvegicus, UniProt P97612).
T3 sequence (P97612 whole entry): T1 sequence (whole entry)
The description is as §1. Format: cell membranes, Membrane.

For test [5], the target named is T2, Monoglyceride lipase (Rattus norvegicus). The test is described as follows: Inhibition of MGL in rat cerebellum membrane fractions assessed as [3H]2-oleoylglycerol hydrolysis at 100 uM. It counts as cell membranes.
The target in the next test is T4, Monoglyceride lipase (Rattus norvegicus, UniProt Q8R431).
T4 sequence (Q8R431 whole entry): T2 sequence (whole entry)
The test is described as follows: (§2) Inhibition of MGL in rat cerebellum cytosolic fractions assessed as [3H]2-oleoylglycerol hydrolysis. It counts as tissue-based.

Test [6] has as its target T2, Monoglyceride lipase (Rattus norvegicus). The description is as §2. It counts as tissue-based.
Test [7] shares this target. The test is described as follows: Inhibition of MGL in rat cerebellum cytosolic fractions assessed as [3H]2-oleoylglycerol hydrolysis at 100 uM. It counts as tissue-based.

The term inhibition denotes the share of the control response that was lost under treatment. Usually IC50 stands for the concentration at which inhibition is half-maximal. As for `CCCCC/C=C\C/C=C\C/C=C\C/C=C\CCCC(=O)OC1CCOCC1`, the figures for the inhibition in test [1], in test [5] and in test [7] were 63%, 33% and 62%, respectively. Further, the Log I50 in test [2] was under 4. Further, the pI50 (-log10 of IC50 in M) in test [3] was determined as 5.3. For the same compound, the IC50 in test [4] was 5.3 µM; on Monoglyceride lipase, 30 µM. Besides, the pI50 (-log I50, M) in test [6] came to 4.5.

Regarding `CCCCC/C=C\C/C=C\C/C=C\C/C=C\CCCC(=O)OCC1CCOC1` (centres undefined), the results for the inhibition in test [1] and in test [5] were 78% and 46%, respectively. Also, in test [2], the Log I50 was under 4. For the same compound, the pI50 (-log10 of IC50 in M) in test [3] is 4.98. Also, the half-maximal inhibitory concentration (IC50) worked out at 11 µM in test [4] and 43 µM at Monoglyceride lipase. Further, the pI50 (-log I50, M) in test [6] was 4.37.

Turning to `CCCCCC/C=C\CCCCCCCC(=O)OCC1CCCCO1` (racemic), the results for the inhibition in test [1], in test [5] and in test [7] were 82%, 36% and 42%, respectively. In addition, the Log I50 in test [2] is under 4. Besides, the pI50 (-log10 of IC50 in M) in test [3] worked out at 5. For the same compound, the IC50 in test [4] stood at 10 µM. In addition, in test [6], the pI50 (-log I50, M) was under 4.

For the compound `O=C(OCC1CO1)c1ccccc1` (racemic), the inhibition in test [1] worked out at 19%; in test [5] it was 0.2%; in test [7], 14%. Besides, the Log I50 in test [2] is under 4. Moreover, the pI50 (-log10 of IC50 in M) in test [3] was under 4. In test [6], the pI50 (-log I50, M) was under 4.

`O=C(OCC1CO1)c1ccccc1-c1ccccc1` (racemic): the inhibition is 5% in test [1], 18% in test [5] and 29% in test [7]. Also, the Log I50 in test [2] was under 4. Besides, the pI50 (-log10 of IC50 in M) in test [3] was under 4. The pI50 (-log I50, M) in test [6] was under 4.
